Results: US6407306B1, “Process for extracting carotenes from carotene-containing materials” (priority 2000, dated 2002)

Key:
[1] = Solubility of extractant in dense carbon dioxide; type: physicochemical; conditions: 70° C. and 120 bar
[2] = cited from earlier work; for solubility relative to β-carotene: qualitative comparison

For `O=CN1CCOCC1` [4-formylmorpholine], which “solubility in carbon dioxide” value [1] is on record?
The value was 9 wt. %.

Which solubility in benzene ([2]; benzene, 19° C.) does the source give for `CC1=C(/C=C/C(C)=C/C=C/C(C)=C/C=C/C=C(C)/C=C/C=C(C)/C=C/C2=C(C)CCCC2(C)C)C(C)(C)CCC1` [β-Carotene] here?
Its solubility in benzene is 0.35 grams per 100 cm^3 of solvent.

And the “solubility in carbon disulfide” value ([2]; carbon disulfide, 19° C.)?
The value was 5.5 grams per 100 cm^3 of solvent.

What about the solubility in ethanol ([2]; ethanol, 19° C.) of the same molecule?
The solubility in ethanol was 0.008 grams per 100 cm^3 of solvent.

And the “solubility in petroleum ether” value ([2]; petroleum ether, 19° C.)?
The value was 0.1 grams per 100 cm^3 of solvent.

Which “solubility relative to β-carotene” value [2] does the source give for `CC1=CCCC(C)(C)C1/C=C/C(C)=C/C=C/C(C)=C/C=C/C=C(C)/C=C/C=C(C)/C=C/C1=C(C)CCCC1(C)C` (stereo not drawn) [α-Carotene] here?
Its value is “more readily soluble than β-carotene”.

With `CC(C)=CCC/C(C)=C/C=C/C(C)=C/C=C/C(C)=C/C=C/C=C(C)/C=C/C=C(C)/C=C/C1=C(C)CCCC1(C)C` [γ-Carotene] as the molecule, how does the “solubility relative to β-carotene” value [2] read?
The value was “more readily soluble than β-carotene”.
